Patent publication US20220411471A1, “CELL-PERMEABLE CYCLIC PEPTIDES AND USES THEREOF” (Unnatural Products Inc., priority 2019, published 2022)
Read-outs that look alike come from different tables or passages of the source. Non-standard residues stand in square brackets, D forms with d. Residues, ends and D or L forms follow the SMILES beside them. NEtPhe(4-F) = CCN[C@@H](Cc1ccc(F)cc1)C(=O)O; Ala(4-thiazolyl) = N[C@@H](Cc1cscn1)C(=O)O; NMePhe(4-F) = CN[C@@H](Cc1ccc(F)cc1)C(=O)O; Phe(4-Cl) = N[C@@H](Cc1ccc(Cl)cc1)C(=O)O; Phe(3-F) = N[C@@H](Cc1cccc(F)c1)C(=O)O; Phe(4-F) = N[C@@H](Cc1ccc(F)cc1)C(=O)O; NMeF = CN[C@@H](Cc1ccccc1)C(=O)O; 3Pal = N[C@@H](Cc1cccnc1)C(=O)O; 2Thi = N[C@@H](Cc1cccs1)C(=O)O; dNMeV = CN[C@@H](C(=O)O)C(C)C; Tle = CC(C)(C)[C@H](N)C(=O)O; NMeV = CN[C@H](C(=O)O)C(C)C; dPip = O=C(O)[C@H]1CCCCN1; hSer = N[C@@H](CCO)C(=O)O; NMeA = CN[C@@H](C)C(=O)O; dNMeA = CN[C@H](C)C(=O)O; Abu = CC[C@H](N)C(=O)O; Nme = COCCNCC(=O)O; Sar = CNCC(=O)O

Tests used:
Format in all cases: binding
Human MDM2 (HDM2) 1-116 [1] = target: T1, Human MDM2 (HDM2) 1-116 (Homo sapiens, UniProt Q00987); experiment: Fluorescence polarization assay 2, MDM2 (Table 4)
T1 construct: Human MDM2 (HDM2) 1-116
T1 sequence (Q00987 1-116): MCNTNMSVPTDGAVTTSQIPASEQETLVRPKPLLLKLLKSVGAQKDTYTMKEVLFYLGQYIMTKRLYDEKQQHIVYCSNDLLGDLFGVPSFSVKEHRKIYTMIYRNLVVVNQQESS
Procedure: Compounds dissolved in DMSO were pin transferred (˜100-200 nL) to the 384 well plate containing the MDM2/p53 solution. After incubation for 60 minutes, the fluorescence polarization was read on a Molecular Devices SpectraMax plate reader equipped with a Fluorescein FP cartridge. In addition to probe alone (positive control) and probe/MDM2 (negative control), a titration of linear p53(18-26) was included on every plate as an additional control. IC50 values were fit using either Prism or Collaborative Drug Discovery.

Human MDM4 (HDM4) 1-114 = target: T2, Human MDM4 (HDM4) 1-114 (Homo sapiens, UniProt O15151); experiment: Fluorescence polarization assay 2, MDM4 (Table 4)
T2 construct: Human MDM4 (HDM4) 1-114
T2 sequence (O15151 1-114): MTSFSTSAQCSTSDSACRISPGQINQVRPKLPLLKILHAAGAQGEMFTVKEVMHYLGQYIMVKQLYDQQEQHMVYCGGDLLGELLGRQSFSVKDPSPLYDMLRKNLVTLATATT
Procedure: Compounds dissolved in DMSO were pin transferred (˜100-200 nL) to the 384 well plate containing the MDM4/p53 solution. After incubation for 60 minutes, the fluorescence polarization was read on a Molecular Devices SpectraMax plate reader equipped with a Fluorescein FP cartridge. In addition to probe alone (positive control) and probe/MDM4 (negative control), a titration of linear p53(18-26) was included on every plate as an additional control. IC50 values were fit using either Prism or Collaborative Drug Discovery.

Human MDM2 (HDM2) 1-116 [2] = target: T1, Human MDM2 (HDM2) 1-116; experiment: Fluorescence polarization assay, MDM2/p53 (Table 3)
[3] = Table 4, fluorescence polarization, read-out: MDM2 IC50
[4] = Table 4, fluorescence polarization, read-out: MDM4 IC50

SMILES	IC50 (Human MDM2 (HDM2) 1-116 [1]; [3])	IC50 (Human MDM4 (HDM4) 1-114; [4])	IC50 (Human MDM2 (HDM2) 1-116 [2])	also measured
CC[C@@H]1NC(=O)[C@H](Cc2ccc(F)cc2)NC(=O)CN(CCOC)C(=O)[C@@H](C)N(C)C(=O)[C@H](Cc2cscn2)NC(=O)[C@H](C)N(C)C(=O)[C@H](CCOC)NC(=O)[C@H]2CCCN2C(=O)[C@H](Cc2ccccc2)N(C)C(=O)[C@H](Cc2ccc(Cl)cc2)NC1=O [Compound 42, CC[C@@H]1NC(=O)[C@H](CC2=CC=C(F)C=C2)NC(=O)CN(CCOC)C(=O)[C@@H](C)N(C)C(=O)[C@H](CC2=CSC=N2)NC(=O)[C@H](C)N(C)C(=O)[C@H](CCOC)NC(=O)[C@H]2CCCN2C(=O)[C@H](CC2=CC=CC=C2)N(C)C(=O)[C@H](CC2=CC=C(Cl)C=C2)NC1=O] (cyclo([Abu][Phe(4-Cl)][NMeF][dP][hSer](Me)[NMeA][Ala(4-thiazolyl)][dNMeA][Nme][Phe(4-F)]))	25 to 50 nM	100 to 150 nM	–	–
COCC[C@@H]1NC(=O)[C@H]2CCCN2C(=O)[C@H](Cc2ccc(F)cc2)N(C)C(=O)[C@H](Cc2ccc(Cl)cc2)NC(=O)[C@@H]2CCCN2C(=O)[C@H](Cc2ccc(F)cc2)NC(=O)CN(CCOC)C(=O)[C@@H](C)N(C)C(=O)[C@H](Cc2cscn2)NC(=O)[C@H](C)N(C)C1=O [Compound 47, COCC[C@@H]1NC([C@H]2CCCN2C([C@@H](N(C([C@@H](NC([C@@H]3CCCN3C([C@@H](NC(CN(C([C@H](N(C([C@@H](NC([C@@H](N(C1=O)C)C)=O)Cc4ncsc4)=O)C)C)=O)CCOC)=O)Cc5ccc(F)cc5)=O)=O)Cc6ccc(Cl)cc6)=O)C)Cc7ccc(F)cc7)=O)=O] (cyclo([Ala(4-thiazolyl)][dNMeA][Nme][Phe(4-F)]P[Phe(4-Cl)][NMePhe(4-F)][dP][hSer](Me)[NMeA]))	25 to 50 nM	100 to 150 nM	–	–
COCC[C@@H]1NC(=O)[C@H]2CCCN2C(=O)[C@H](Cc2ccccc2)N(C)C(=O)[C@H](Cc2ccc(Cl)cc2)NC(=O)[C@H](C(C)C)N(C)C(=O)[C@H](Cc2ccc(F)cc2)NC(=O)CN(CCOC)C(=O)[C@@H](C)N(C)C(=O)[C@H](Cc2cscn2)NC(=O)[C@H](C)N(C)C1=O [Compound 43, COCC[C@@H]1NC(=O)[C@H]2CCCN2C(=O)[C@H](CC2=CC=CC=C2)N(C)C(=O)[C@H](CC2=CC=C(Cl)C=C2)NC(=O)[C@H](C(C)C)N(C)C(=O)[C@H](CC2=CC=C(F)C=C2)NC(=O)CN(CCOC)C(=O)[C@@H](C)N(C)C(=O)[C@H](CC2=CSC=N2)NC(=O)[C@H](C)N(C)C1=O] (cyclo([Ala(4-thiazolyl)][dNMeA][Nme][Phe(4-F)][NMeV][Phe(4-Cl)][NMeF][dP][hSer](Me)[NMeA]))	25 to 50 nM	100 to 150 nM	–	–
COCC[C@@H]1NC(=O)[C@H]2CCCN2C(=O)[C@H](Cc2ccc(F)cc2)N(C)C(=O)[C@H](Cc2ccc(Cl)cc2)NC(=O)[C@H](C(C)(C)C)NC(=O)[C@H](Cc2ccc(F)cc2)NC(=O)CN(CCOC)C(=O)[C@@H](C)N(C)C(=O)[C@H](Cc2cscn2)NC(=O)[C@H](C)N(C)C1=O [Compound 37, COCC[C@@H]1NC(=O)[C@H]2CCCN2C(=O)[C@H](Cc2ccc(F)cc2)N(C)C(=O)[C@H](CC2=CC=C(Cl)C=C2)NC(=O)[C@@H](NC(=O)[C@H](Cc2ccc(F)cc2)NC(=O)CN(CCOC)C(=O)[C@@H](C)N(C)C(=O)[C@H](CC2=CSC=N2)NC(=O)[C@H](C)N(C)C1=O)C(C)(C)C] (cyclo([Ala(4-thiazolyl)][dNMeA][Nme][Phe(4-F)][Tle][Phe(4-Cl)][NMePhe(4-F)][dP][hSer](Me)[NMeA]))	25 to 50 nM	50 to 100 nM	–	–
COCC[C@@H]1NC(=O)[C@H]2CCCN2C(=O)[C@H](Cc2ccccc2)N(C)C(=O)[C@H](Cc2ccc(Cl)cc2)NC(=O)CN(C)C(=O)[C@H](Cc2ccc(F)cc2)NC(=O)[C@H](C)N(C)C(=O)[C@@H](C)N(C)C(=O)[C@H](Cc2cscn2)NC(=O)[C@H](C)N(C)C1=O [Compound 33, COCC[C@@H]1NC(=O)[C@H]2CCCN2C(=O)[C@H](CC2=CC=CC=C2)N(C)C(=O)[C@H](CC2=CC=C(Cl)C=C2)NC(=O)CN(C)C(=O)[C@H](CC2=CC=C(F)C=C2)NC(=O)[C@H](C)N(C)C(=O)[C@@H](C)N(C)C(=O)[C@H](CC2=CSC=N2)NC(=O)[C@H](C)N(C)C1=O] (cyclo([Ala(4-thiazolyl)][dNMeA][NMeA][Phe(4-F)][Sar][Phe(4-Cl)][NMeF][dP][hSer](Me)[NMeA]))	–	–	–	IC50 (Human MDM2 (HDM2) 1-116 [1]): < 25 nM; IC50 (Human MDM4 (HDM4) 1-114): 50 to 100 nM
CCN1C(=O)[C@H](Cc2ccc(Cl)cc2)NC(=O)[C@H](C(C)(C)C)NC(=O)[C@H](Cc2ccc(F)cc2)NC(=O)CN(CCOC)C(=O)[C@@H](C)N(C)C(=O)[C@H](Cc2cscn2)NC(=O)[C@H](C)N(C)C(=O)[C@H](CCOC)NC(=O)[C@H]2CCCN2C(=O)[C@@H]1Cc1ccc(F)cc1 [Compound 44, CCN1[C@@H](Cc2ccc(F)cc2)C(=O)N2CCC[C@@H]2C(=O)N[C@@H](CCOC)C(=O)N(C)[C@@H](C)C(=O)N[C@@H](Cc2cscn2)C(=O)N(C)[C@H](C)C(=O)N(CCOC)CC(=O)N[C@@H](Cc2ccc(F)cc2)C(=O)N[C@H](C(=O)N[C@@H](Cc2ccc(Cl)cc2)C1=O)C(C)(C)C] (cyclo([Ala(4-thiazolyl)][dNMeA][Nme][Phe(4-F)][Tle][Phe(4-Cl)][NEtPhe(4-F)][dP][hSer](Me)[NMeA]))	50 to 100 nM	> 150 nM	–	–
COCC[C@@H]1NC(=O)[C@H]2CCCN2C(=O)[C@H](Cc2ccc(F)cc2)N(C)C(=O)[C@H](Cc2ccc(Cl)cc2)NC(=O)[C@H](C(C)(C)C)NC(=O)[C@H](Cc2ccc(F)cc2)NC(=O)[C@H](C)N(C)C(=O)[C@@H](C)N(C)C(=O)[C@H](Cc2cscn2)NC(=O)[C@H](C)N(C)C1=O [Compound 38, COCC[C@@H]1NC(=O)[C@H]2CCCN2C(=O)[C@H](Cc2ccc(F)cc2)N(C)C(=O)[C@H](CC2=CC=C(Cl)C=C2)NC(=O)[C@@H](NC(=O)[C@H](Cc2ccc(F)cc2)NC(=O)[C@H](C)N(C)C(=O)[C@@H](C)N(C)C(=O)[C@H](CC2=CSC=N2)NC(=O)[C@H](C)N(C)C1=O)C(C)(C)C] (cyclo([Ala(4-thiazolyl)][dNMeA][NMeA][Phe(4-F)][Tle][Phe(4-Cl)][NMePhe(4-F)][dP][hSer](Me)[NMeA]))	25 to 50 nM	50 to 100 nM	–	–
COCCN1CC(=O)N(C)[C@@H](C)C(=O)N[C@@H](Cc2ccc(F)cc2)C(=O)N(C)[C@@H](C)C(=O)N[C@@H](Cc2ccc(Cl)cc2)C(=O)N(C)[C@H](C(C)C)C(=O)N2CCC[C@H]2C(=O)N[C@@H](Cc2ccccc2)C(=O)N[C@@H](C(C)(C)C)C(=O)N[C@@H](Cc2cccc(F)c2)C1=O [Compound 24, COCCN1CC(=O)N(C)[C@@H](C)C(=O)N[C@@H](Cc2ccc(F)cc2)C(=O)N(C)[C@@H](C)C(=O)N[C@@H](Cc2ccc(Cl)cc2)C(=O)N(C)[C@H](C(C)C)C(=O)N2CCC[C@H]2C(=O)N[C@@H](Cc2ccccc2)C(=O)N[C@H](C(=O)N[C@@H](Cc2cccc(F)c2)C1=O)C(C)(C)C] (cyclo(F[Tle][Phe(3-F)][Nme][NMeA][Phe(4-F)][NMeA][Phe(4-Cl)][dNMeV]P))	–	–	1000 to 2500 nM	–
COCCN1CC(=O)N(C)[C@@H](C)C(=O)N[C@@H](Cc2ccc(F)cc2)C(=O)N(C)[C@@H](C)C(=O)N[C@@H](Cc2ccc(Cl)cc2)C(=O)N(C)[C@H](C(C)C)C(=O)N2CCC[C@H]2C(=O)N[C@@H](Cc2cccs2)C(=O)N[C@@H](C(C)(C)C)C(=O)N[C@@H](Cc2cccnc2)C1=O [Compound 17, COCCN1CC(=O)N(C)[C@@H](C)C(=O)N[C@@H](Cc2ccc(F)cc2)C(=O)N(C)[C@@H](C)C(=O)N[C@@H](Cc2ccc(Cl)cc2)C(=O)N(C)[C@H](C(C)C)C(=O)N2CCC[C@H]2C(=O)N[C@@H](Cc2cccs2)C(=O)N[C@H](C(=O)N[C@@H](Cc2cccnc2)C1=O)C(C)(C)C] (cyclo([2Thi][Tle][3Pal][Nme][NMeA][Phe(4-F)][NMeA][Phe(4-Cl)][dNMeV]P))	–	–	< 1000 nM	–
COCCN1CC(=O)N(C)[C@@H](C)C(=O)N[C@@H](Cc2ccc(F)cc2)C(=O)N(C)[C@@H](C)C(=O)N[C@@H](Cc2ccc(Cl)cc2)C(=O)N(C)[C@H](C(C)C)C(=O)N2CCC[C@H]2C(=O)N[C@@H](Cc2ccccc2)C(=O)N[C@@H](C(C)(C)C)C(=O)N[C@@H](Cc2ccc(O)cc2)C1=O [Compound 31, [H]Oc1ccc(C[C@@H]2NC(=O)[C@@H](NC(=O)[C@H](Cc3ccccc3)NC(=O)[C@@H]3CCCN3C(=O)[C@@H](C(C)C)N(C)C(=O)[C@H](Cc3ccc(Cl)cc3)NC(=O)[C@H](C)N(C)C(=O)[C@H](Cc3ccc(F)cc3)NC(=O)[C@H](C)N(C)C(=O)CN(CCOC)C2=O)C(C)(C)C)cc1] (cyclo(F[Tle]Y[Nme][NMeA][Phe(4-F)][NMeA][Phe(4-Cl)][dNMeV]P))	–	–	≥ 5000 nM	–
COCCN1CC(=O)N(C)[C@@H](C)C(=O)N[C@@H](Cc2ccc(F)cc2)C(=O)N(C)[C@@H](C)C(=O)N[C@@H](Cc2ccc(Cl)cc2)C(=O)N2CCCC[C@@H]2C(=O)N2CCC[C@H]2C(=O)N[C@@H](Cc2ccccc2)C(=O)N[C@@H](C(C)(C)C)C(=O)N[C@@H](Cc2ccc(O)cc2)C1=O [Compound 30, [H]Oc1ccc(C[C@@H]2NC(=O)[C@@H](NC(=O)[C@H](Cc3ccccc3)NC(=O)[C@@H]3CCCN3C(=O)[C@H]3CCCCN3C(=O)[C@H](Cc3ccc(Cl)cc3)NC(=O)[C@H](C)N(C)C(=O)[C@H](Cc3ccc(F)cc3)NC(=O)[C@H](C)N(C)C(=O)CN(CCOC)C2=O)C(C)(C)C)cc1] (cyclo(F[Tle]Y[Nme][NMeA][Phe(4-F)][NMeA][Phe(4-Cl)][dPip]P))	–	–	2500 to 5000 nM	–
